pEC50: −log10 of the molar value. Read-outs that look alike come from different tables or passages of the source.
Assays:
Aβ1-42 = biological target: T1, Aβ1-42 (Homo sapiens, UniProt P05067); assay: Amyloid-beta disaggregation test by Thioflavin-T analysis; format: biochemical; conditions: for EC50: Aβ1-42 50 µM aggregated 24 hours, then compound 0 - 500 µM for 48 hours at 37 °C, concentration disaggregating 50 % of aggregates vs control, read-out: EC50 (µM) Aβ; for disaggregation effect for amyloid-beta protein aggregates: statement in words summarising the Thioflavin-T results
T1 construct: dissolving Aβ1-42 or Tau-RD3 (Tau repeat domain 3) monomers in DMSO
T1 sequence (P05067 672-713 limits assumed): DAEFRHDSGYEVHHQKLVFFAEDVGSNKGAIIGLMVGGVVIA
Experimental: (§1) Each compound was dissolved in DMSO to a concentration of 10 mM. Then, the compounds were diluted with 6 % DMSO (in DW) for use.
(§2) Amyloid-beta and tau solutions were prepared by dissolving Aβ1-42 or Tau-RD3 (Tau repeat domain 3) monomers in DMSO to a concentration of 10 mM. Then, the solutions were diluted to 100 µM with DW and stored on ice.
(§3) Meanwhile, Thioflavin-T was dissolved in 50 mM glycine buffer (pH 8.5) to a concentration of 5 mM. Then, the solution was diluted to 5 µM with 50 mM glycine buffer (pH 8.5) and stored in the dark, protected from light.
(§4) The amyloid-beta and tau solutions prepared in Example 1.1 were each placed in 1.5 mL microcentrifuge tubes to a concentration of 50 µM or 35 µM, respectively, and then reacted at 37 °C for 24 hours.
(§5) To each 1.5 mL microcentrifuge tube in which the amyloid-beta and tau aggregation was complete, the compounds were added at concentrations ranging from 500 µM down to 0 µM by serial dilution, and then further reacted at 37 °C for 48 hours.
(§6) 25 µL of each completed reaction solution was added to each well of a 96-well fluorescence analysis plate, and 75 µL of the Thioflavin-T solution was added to each well. After reacting for 5 minutes at room temperature in the dark, the fluorescence value was measured at 450 nm (excitation) and 485 nm (emission) using a multi-mode microplate reader.
(§7) The fluorescence value of the group (control group) treated with only amyloid-beta or tau and aggregated for 72 hours was designated as 100 %. The fluorescence values measured after treating the amyloid-beta and tau aggregates (formed by reacting for 24 hours) with each compound by concentration and reacting for an additional 48 hours were converted to relative values.

[1] = biological target: Tau-RD3 (Tau repeat domain 3) (Homo sapiens, UniProt P10636); assay: Tau disaggregation test by Thioflavin-T analysis; format: biochemical; conditions: for EC50: Tau-RD3 35 µM aggregated 24 hours, then compound 0 - 500 µM for 48 hours at 37 °C, concentration disaggregating 50 % of aggregates vs control, read-out: EC50 (µM) Tau; for disaggregation effect for tau protein aggregates: statement in words summarising the Thioflavin-T results
Chain of Tau-RD3 (Tau repeat domain 3) (P10636 623-653 limits assumed): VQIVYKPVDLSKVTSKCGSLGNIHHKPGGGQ
Experimental: as §1, §2, §3, §4, §5, §6, §7

EC50 (Aβ1-42)	EC50 [1]	SMILES	disaggregation effect for amyloid-beta protein aggregates (Aβ1-42)	disaggregation effect for tau protein aggregates [1]	pEC50 (Aβ1-42)
20 to 100 µM	20 to 100 µM	Cc1ncsc1C1=C(c2cccc(CN3CCN(C)CC3)c2)c2ccccc2C1=O [Compound 93, 3-(3-((4-methylpiperazin-1-yl)methyl)phenyl)-2-(4-methylthiazol-5-yl)-1H-inden-1-one]			
20 to 100 µM	20 to 100 µM	Cc1ncsc1C1=C(c2scnc2C)c2ccc(N3CCN(CCO)CC3)cc2C1=O [Compound 81, 6-(4-(2-hydroxyethyl)piperazin-1-yl)-2,3-bis(4-methylthiazol-5-yl)-1H-inden-1-one]			
20 to 100 µM	< 20 µM	Cc1ncsc1C1=C(c2ccc(CN3CCN(C)CC3)cc2)C(=O)c2ccccc21 [Compound 86, 2-(4-((4-methylpiperazin-1-yl)methyl)phenyl)-3-(4-methylthiazol-5-yl)-1H-inden-1-one]			
< 20 µM	> 250 µM	COc1cc(OC)c2c(c1)C(=O)C(c1ccccc1)=C2c1ccccc1 [Compound 97, 4,6-dimethoxy-2,3-diphenyl-1H-inden-1-one]			
< 20 µM	20 to 100 µM	Cc1ncsc1C1=C(c2ccc(CN3CCOCC3)cc2)C(=O)c2ccccc21 [Compound 87, 3-(4-methylthiazol-5-yl)-2-(4-(morpholinomethyl)phenyl)-1H-inden-1-one]			
20 to 100 µM	> 250 µM	CN1CCN(c2cccc(C3=C(c4ccccc4)C(=O)c4ccccc43)c2)CC1 [Compound 95, 3-(3-(4-methylpiperazin-1-yl)phenyl)-2-phenyl-1H-inden-1-one]			
> 250 µM	100 to 250 µM	O=C1C(c2cncs2)=C(c2cncs2)c2ccc(O)cc21 [Compound 83-6, 6-hydroxy-2,3-di(thiazol-5-yl)-1H-inden-1-one]			
< 20 µM	< 20 µM	Cc1ncsc1C1=C(c2ccc(N3CCN(C)CC3)cc2)C(=O)c2cc(OCCCc3ccccc3)ccc21 [Compound 76, 2-(4-(4-methylpiperazin-1-yl)phenyl)-3-(4-methylthiazol-5-yl)-6-(3-phenylpropoxy)-1H-inden-1-one]			
20 to 100 µM	20 to 100 µM	Cc1ncsc1C1=C(c2ccc(CN3CCN(C)CC3)cc2)c2ccccc2C1=O [Compound 92, 3-(4-((4-methylpiperazin-1-yl)methyl)phenyl)-2-(4-methylthiazol-5-yl)-1H-inden-1-one]			
< 20 µM	> 250 µM	CN1CCN(c2cccc(C3=C(c4ccccc4)c4ccccc4C3=O)c2)CC1 [Compound 91, 2-(3-(4-methylpiperazin-1-yl)phenyl)-3-phenyl-1H-inden-1-one]			
< 20 µM	> 250 µM	Cc1cccc(C)c1C1=C(c2ccccc2)C(=O)c2cc(Cl)ccc21 [Compound 72-7, 6-chloro-3-(2,6-dimethylphenyl)-2-phenyl-1H-inden-1-one]			
20 to 100 µM	20 to 100 µM	COc1ccc2c(c1)C(=O)C(c1cncs1)=C2c1cncs1 [Compound 83-5, 6-methoxy-2,3-di(thiazol-5-yl)-1H-inden-1-one]			
< 20 µM	< 20 µM	Cc1ccccc1C1=C(c2c(C)cccc2C)c2ccc(O)cc2C1=O [Compound 84, 3-(2,6-dimethylphenyl)-6-hydroxy-2-(o-tolyl)-1H-inden-1-one]	remarkably excellent disaggregation effect	remarkably excellent disaggregation effect	

More lines, now with the values behind:

SMILES	EC50 (Aβ1-42)	EC50 [1]	disaggregation effect for amyloid-beta protein aggregates (Aβ1-42)	disaggregation effect for tau protein aggregates [1]	pEC50 (Aβ1-42)
Cc1ncsc1C1=C(c2cccnc2)C(=O)c2cc(Oc3ccccc3)ccc21 [Compound 66, 3-(4-methylthiazol-5-yl)-6-phenoxy-2-(pyridin-3-yl)-1H-inden-1-one]	< 20 µM	< 20 µM	remarkably excellent disaggregation effect	remarkably excellent disaggregation effect	
Cc1ncsc1C1=C(c2cccnc2)C(=O)c2cc(NC(=O)C3CCOCC3)ccc21 [Compound 61, N-(3-(4-methylthiazol-5-yl)-1-oxo-2-(pyridin-3-yl)-1H-inden-6-yl)tetrahydro-2H-pyran-4-carboxamide]	> 250 µM	> 250 µM			
Cc1scnc1C1=C(c2cccnc2)C(=O)c2cc(OCCCc3ccncc3)ccc21 [Compound 23, 3-(5-methylthiazol-4-yl)-2-(pyridin-3-yl)-6-(3-(pyridin-4-yl)propoxy)-1H-inden-1-one]	< 20 µM	< 20 µM	remarkably excellent disaggregation effect	remarkably excellent disaggregation effect	
O=C1C(c2ccccc2)=C(C2CCCCC2)c2ccccc21 [Compound 10, 3-cyclohexyl-2-phenyl-1H-inden-1-one]	> 250 µM	> 250 µM			
CCCOc1ccc2c(c1)C(=O)C(c1ccccc1)=C2c1ccccc1 [Compound 3, 2,3-diphenyl-6-propoxy-1H-inden-1-one]	< 20 µM	> 250 µM			
O=C1C(N2CCOCC2)=C(c2ccccc2)c2ccccc21 [Compound 8, 2-morpholino-3-phenyl-1H-inden-1-one]	100 to 250 µM	20 to 100 µM			
Cc1ncsc1C1=C(c2cccnc2)C(=O)c2cc(N(C)CCCc3ccccc3)ccc21 [Compound 38, 6-(methyl(3-phenylpropyl)amino)-3-(4-methylthiazol-5-yl)-2-(pyridin-3-yl)-1H-inden-1-one]	< 20 µM	> 250 µM			
Cc1ncsc1C1=C(c2cccnc2)C(=O)c2cc(NC3CCN(C)CC3)ccc21 [Compound 51, 6-((1-methylpiperidin-4-yl)amino)-3-(4-methylthiazol-5-yl)-2-(pyridin-3-yl)-1H-inden-1-one]	< 20 µM	20 to 100 µM			
Cc1ncsc1C1=C(c2ccn(C3CCN(C)CC3)n2)C(=O)c2cc(OCCCc3ccccc3)ccc21 [Compound 29, 2-(1-(1-methylpiperidin-4-yl)-1H-pyrazol-3-yl)-3-(4-methylthiazol-5-yl)-6-(3-phenylpropoxy)-1H-inden-1-one]		> 250 µM			< 3.60
Cc1cc(OCCCc2ccccc2)cc2c1C(c1scnc1C)=C(c1cccnc1)C2=O [Compound 46, 4-methyl-3-(4-methylthiazol-5-yl)-6-(3-phenylpropoxy)-2-(pyridin-3-yl)-1H-inden-1-one]	< 20 µM	< 20 µM	remarkably excellent disaggregation effect	remarkably excellent disaggregation effect	
Cc1ncsc1C1=C(c2cc[nH]n2)C(=O)c2cc(OCCCc3ccccc3)ccc21 [Compound 25, 3-(4-methylthiazol-5-yl)-6-(3-phenylpropoxy)-2-(1H-pyrazol-3-yl)-1H-inden-1-one]	< 20 µM	> 250 µM			
COc1ccccc1C1=C(c2cccnc2)C(=O)c2cc(OCCCc3ccccc3)ccc21 [Compound 44, 3-(2-methoxyphenyl)-6-(3-phenylpropoxy)-2-(pyridin-3-yl)-1H-inden-1-one]	< 20 µM	> 250 µM			
Cc1ncsc1C1=C(c2ccncc2)C(=O)c2cc(O)ccc21 [Compound 39-3, 6-hydroxy-3-(4-methylthiazol-5-yl)-2-(pyridin-4-yl)-1H-inden-1-one]	> 250 µM	> 250 µM			
COc1cccc(OC)c1C1=C(c2cccnc2)C(=O)c2cc(OCCCc3ccccc3)ccc21 [Compound 45, 3-(2,6-dimethoxyphenyl)-6-(3-phenylpropoxy)-2-(pyridin-3-yl)-1H-inden-1-one]	< 20 µM	100 to 250 µM			
COc1ccc2c(c1)C(=O)C(c1cccnc1)=C2c1cnn(C)c1 [Compound 42-6, 6-methoxy-3-(1-methyl-1H-pyrazol-4-yl)-2-(pyridin-3-yl)-1H-inden-1-one]	20 to 100 µM	20 to 100 µM			
Cc1ncsc1C1=C(c2cn(C)nn2)C(=O)c2cc(OCCCc3ccccc3)ccc21 [Compound 32, 2-(1-methyl-1H-1,2,3-triazol-4-yl)-3-(4-methylthiazol-5-yl)-6-(3-phenylpropoxy)-1H-inden-1-one]	< 20 µM	< 20 µM			
Cc1ccccc1C1=C(c2ccccc2)c2ccccc2C1=O [Compound 6, 3-phenyl-2-(o-tolyl)-1H-inden-1-one]	20 to 100 µM	> 250 µM			
CNc1ccc2c(c1)C(=O)C(c1ccccc1)=C2c1ccccc1 [Compound 67, 6-(methylamino)-2,3-diphenyl-1H-inden-1-one]	> 250 µM	> 250 µM			
Nc1ccc2c(c1)C(=O)C(c1ccccc1)=C2c1ccccc1 [Compound 68, 6-amino-2,3-diphenyl-1H-inden-1-one]	> 250 µM	> 250 µM			
